Assay results as given in publication PMC10746280, “Bacterial efflux pump modulators prevent bacterial growth in macrophages and under broth conditions that mimic the host environment” (mBio, 2023).

How the values were obtained:
[1] = molecular target: T1, E. coli AcrB (Escherichia coli, UniProt P31224); assay: Single-particle cryo-EM of AcrB-EPM complexes in nanodiscs; conditions: "binding" protomer of the AcrB trimer; 10 µM EPM
T1 construct: 4xHis (C); made in house; host or cells: E. coli BL21-Gold (DE3), plasmid derived from pSPORT1
Description: To elucidate at high resolution how the EPM analogs interact with AcrB, we used cryo-electron microscopy (cryo-EM). We overproduced and purified the E. coli AcrB protein containing a 6×His tag at the C-terminus and reconstituted the protein into lipidic nanodiscs ([17]). We incubated the AcrB-nanodisc samples with the parent compound or with one of three structurally dissimilar EPMs analogs (CU032, CU232, CU244) to form AcrB-EPM complexes. We then solved single-particle cryo-EM structures of these complexes to resolutions between 2.63 and 2.82 Å (Table 2; Fig. 3).
AcrB was purified from E. coli BL21(DE3)ΔacrB/pSPORTΩacrB cells and reconstituted into lipidic nanodiscs. To assemble AcrB into nanodiscs, a mixture containing 10 µM AcrB, 30 µM membrane scaffold protein (1E3D1), and 900 µM E. coli total extract lipid was incubated for 15 min at room temperature. After, 0.8 mg/mL prewashed Bio-Beads (Bio-Rad) was added. The resultant mixture was incubated for 1 h on ice, followed by overnight incubation at 4°C. The protein-nanodisc solution was filtered through 0.22 µm nitrocellulose filter tubes to remove the Bio-Beads. To separate free nanodiscs from AcrB-loaded nanodiscs, the filtered protein-nanodisc solution was purified using a Superose six column (GE Healthcare) equilibrated with 20 mM Tris-HCl (pH 7.5) and 100 mM NaCl. Fractions corresponding to the size of the trimeric AcrB-nanodisc complex were collected for cryo-EM ([46]). We then incubated 0.6 mg/mL AcrB-nanodisc with 10 µM EPM for 2 h and solved structure of the AcrB-EPM complex using single-particle cryo-EM to a resolution of 2.20 Å.

[2] = system: Bacillus subtilis expressing mNeongreen-FtsZ; assay: Membrane voltage disruption assay (mNeongreen-FtsZ delocalization); assay type: cell-based; conditions: 150 µM, 15 min, LPM 5.5
Source text: We therefore monitored membrane integrity in the presence of EPM analogs by evaluating membrane voltage with mNeongreen-FtsZ ([28][–][30]). The FtsZ protein localizes to the bacterial septum based on membrane potential, and rapid delocalization of fluorescent FtsZ reporters occurs when voltage across the membrane is disrupted ([31], [32]). We monitored mNeongreen-FtsZ localization in a Gram-positive bacterium, Bacillus subtilis, to eliminate the potentially confounding issue of the passage of EPM analogs through the outer membrane at different rates ([24], [33][–][36]).
To determine whether exposure to compound dislodges FtsZ from the cell septum, an overnight culture of Bacillus subtilis grown in LPM at pH 5.5 (LPM 5.5) expressing mNeonGreen-FtsZ (strain DK5092) was exposed to DMSO, CCCP (100 µM) or an EPM analog (150 µM) for 15 or 30 min, as indicated. Bacteria were immobilized on 1% agarose pads made with LPM under a coverslip. To set the threshold value for the FtsZ septal ring, mNeonGreen signal (excitation 488 nm, emission 525 nm) from at least 20 DMSO-treated cells was quantified using a CV1000 confocal microscope with a 100× oil, NA = 1.4 objective. A background-subtracted image was made by subtracting the median intensity from full original images. A signal threshold of ≥400 arbitrary units per pixel was set (Fig. 4B). Then, we manually confirmed that mNeonGreen signal above threshold was at the center of the bacterial rod. We examined 50 cells per sample from at least three biological replicates (≥150 cells per condition). A MATLAB program (https://github.com/Betterton-Lab/FtsZ-Quantification) counted the number of pixels above threshold per cell and averaged this value across all cells for each condition and this value is reported in the graph (Fig. 4C).

[3] = system: RAW 264.7 macrophages; assay: SAFIRE macrophage assay: host toxicity (adherent macrophage count, morphology); assay type: cell-based
Procedure, shortened: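 RAW 264.7 macrophages infected with S. Typhimurium SL1344 sifB::gfp (MOI ~30), gentamicin 40 µg/mL, then compound from 2 h to 18 h post-infection. Confocal imaging with MitoTracker and DAPI; toxicity as adherent MitoTracker-positive macrophage count, bacterial load as GFP+ macrophage area.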

[4] = 5 uM compound, n=1, DMSO solvent control = 100
[5] = 25 uM compound, n=1, DMSO solvent control = 100

T1 sequence (P31224 whole entry): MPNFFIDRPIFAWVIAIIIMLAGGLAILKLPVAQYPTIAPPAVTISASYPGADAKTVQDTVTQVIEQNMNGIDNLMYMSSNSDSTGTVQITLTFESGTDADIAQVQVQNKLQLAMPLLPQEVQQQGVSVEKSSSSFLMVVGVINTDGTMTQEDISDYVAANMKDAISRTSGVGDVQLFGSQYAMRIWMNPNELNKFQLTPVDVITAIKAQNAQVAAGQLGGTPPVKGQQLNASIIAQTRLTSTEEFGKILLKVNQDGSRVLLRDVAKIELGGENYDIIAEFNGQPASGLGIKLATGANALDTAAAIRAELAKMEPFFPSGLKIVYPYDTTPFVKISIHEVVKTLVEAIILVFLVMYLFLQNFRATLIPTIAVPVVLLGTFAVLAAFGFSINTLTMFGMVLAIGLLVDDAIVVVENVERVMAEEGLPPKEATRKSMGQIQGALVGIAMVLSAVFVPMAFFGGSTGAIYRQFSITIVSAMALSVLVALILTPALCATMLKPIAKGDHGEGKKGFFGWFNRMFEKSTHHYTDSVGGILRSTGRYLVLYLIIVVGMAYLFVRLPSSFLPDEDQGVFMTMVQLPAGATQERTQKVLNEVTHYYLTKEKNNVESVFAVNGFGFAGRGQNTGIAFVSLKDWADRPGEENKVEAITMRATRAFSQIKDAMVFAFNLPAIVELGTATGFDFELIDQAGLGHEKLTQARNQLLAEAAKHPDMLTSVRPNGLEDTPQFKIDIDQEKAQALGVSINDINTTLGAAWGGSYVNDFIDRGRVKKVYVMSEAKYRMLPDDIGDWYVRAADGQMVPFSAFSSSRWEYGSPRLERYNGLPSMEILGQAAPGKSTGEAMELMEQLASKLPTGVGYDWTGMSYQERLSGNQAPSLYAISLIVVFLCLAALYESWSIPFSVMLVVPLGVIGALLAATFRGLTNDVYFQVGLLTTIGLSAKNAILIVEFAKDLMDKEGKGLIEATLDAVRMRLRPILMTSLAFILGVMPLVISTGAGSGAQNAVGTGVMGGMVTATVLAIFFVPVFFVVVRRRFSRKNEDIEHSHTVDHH

SMILES	binding site in AcrB (cryo-EM) [1]	effect on mNeongreen-FtsZ ring size / localization [2]	5 uM Avg Cell # Score [3, 4]	25 uM Avg Cell # Score [3, 5]	5 uM Avg Cell # Score ([3]; 5 uM)	5 uM Avg Cell # Score ([3]; 5 uM, listed as CU035)	25 uM Avg Cell # Score ([3]; 25 uM)	25 uM Avg Cell # Score ([3]; 25 uM, listed as CU035)
NC1CCN(CC(O)COc2cccc(C(F)(F)F)c2)CC1 (centres unmarked) [CU232]	distal drug-binding site	no significant effect	124	113	–	–	–	–
OC(COc1ccc(Cl)c(Cl)c1)CN1CCC(Nc2nccc(C(F)(F)F)n2)CC1 (centres unmarked) [EPM35]	distal drug-binding pocket	did not alter FtsZ localization	–	–	98	107	72	134
NC1CCN(CC(O)COc2ccc(Cl)c(Cl)c2)C1 (centres unmarked) [CU032]	distal drug-binding pocket	no significant effect	–	–	95	–	95	–
OC(CN[C@H]1[C@@H]2CNC[C@@H]21)COc1cc(Cl)cc(Cl)c1 (some centres unmarked) [CU244]	distal drug-binding site	–	121	108	–	–	–	–
